{
  "source": "patent US20140323457A1",
  "about": "“BETA-O/S/N FATTY ACID BASED COMPOUNDS AS ANTIBACTERIAL AND ANTIPROTOZOAL AGENTS” (LUDWIG-MAXIMILIANS-UNIVERSITÄT MÜNCHEN, priority 2011, published 2014)",
  "key": {"[1]": {"system": "S. aureus strain NCTC 8325", "experiment": "minimal inhibiting concentration (MIC) in liquid bacterial culture", "format": "cell-based", "details": "overnight 37° C., read-out: MIC", "method": "(§1) 1 ml of an appropriate bacterial broth for the standard laboratory S. aureus strain NCTC 8325 were inoculated with 1*10^6 cfu. The cultures were kept overnight at 37° C. with gentle shaking 300 rpm in the presence of compounds AVU1Acid, AVU1AAc, AVU1AA or VK273 according to the present invention at different concentrations or dimethyl sulfoxide (DMSO) as control. Different beta-lactone virulence inhibitors were used as reference compounds. Following overnight incubation the optical density was measured in order to determine the minimal inhibiting concentration (MIC), which is defined as the lowest concentration of an antimicrobial that will inhibit the visible growth of a microorganism after overnight incubation. A 100 μl fraction of the supernatant of the grown bacterial cultures was subsequently analysed for the content of secreted bacterial hemolysins by addition of sheep red blood cells (10% v/v in PBS) and the measurement of the optical density at 410 nm after 30 min incubation at 37° C."}, "[2]": {"system": "S. aureus strain NCTC 8325", "experiment": "liquid culture-based hemolysis assay (secreted hemolysins, sheep red blood cells)", "format": "cell-based", "method": "The inhibition of hemolysin production has thus been further analysed in liquid bacterial cultures in order to evaluate their potential effects on bacterial growth simultaneously. Besides AVU1Acid, AVU1AAc, AVU1AA and VK273 the following further compounds were tested in liquid bacterial cultures:\nas §1\nThe following results were obtained in further liquid culture-based hemolysis assays. Since the assays were performed at different times with different charges of sheep red blood cells AVU1 has been tested as a reference substance in each assay. The resulting EC50 values determined for the tested compounds have to be assessed with respect to the EC50 value determined for AVU1."}, "[3]": {"experiment": "stability in mouse plasma", "format": "in vitro ADME", "details": "100 μM, 37° C., 0-240 min; FIG. 8, FIG. 10", "method": "(§2) We investigated the stability of the compound herein in plasma preparations in comparison the beta-lactone compounds. Human plasma was obtained lyophilized from Sigma and reconstituted in sterile H2O. For human plasma 3.8% trisodium citrate was used as anticoagulant. Mouse plasma was prepared from whole blood samples from SKH-1 and Balb/C mice using Lithium-Heparin as anticoagulant and pooled from at least three different donor animals. Plasma samples were sterile filtered and stored in aliquots at −20° C. […] Test compounds were diluted 1:100 from a DMSO stock solution to a final concentration of 100 μM in both human and mouse plasma prewarmed for 10 min in an orbital shaker to 37° C. Test compounds were further incubated at 37° C. in the orbital shaker. Samples were withdrawn at time points 0, 5, 10, 20, 30, 60, 120, 240 min and immediately quenched by the addition of an equal volume of ice-cold acetonitrile. Subsequently, all samples were spun at maximum speed in a microcentrifuge to pellet precipitated proteins and samples were prepared for LC-MS analysis. Compound quantification occurred through analysis via the LTQ-FT high resolution mass-spectrometer and XCalibur-Software purchased at Thermo Scientific, Dreieich, D-63303 Germany."}, "[4]": {"experiment": "stability in human plasma", "format": "in vitro ADME", "details": "SKH-1 and Balb/C (mouse plasma); positive control at 100 μM in every experiment (human and mouse plasma), 37° C.", "method": "as §2"}, "CIpP": {"target": "T1, CIpP (Staphylococcus aureus, UniProt Q2G036)", "T1 construct": "Living S. aureus NCTC8325 cells from a fresh stationary liquid culture were aliquoted; endogenous in cells; host or cells: living S. aureus NCTC8325 cells", "T1 sequence (Q2G036 1-195)": "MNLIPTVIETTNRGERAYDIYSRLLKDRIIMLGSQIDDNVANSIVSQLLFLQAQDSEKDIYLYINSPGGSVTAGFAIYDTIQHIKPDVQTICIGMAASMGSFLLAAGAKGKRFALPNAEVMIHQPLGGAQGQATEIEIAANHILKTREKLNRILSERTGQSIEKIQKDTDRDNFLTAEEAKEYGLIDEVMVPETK", "experiment": "competitive ABPP proteome labeling of living S. aureus cells with U1P probe", "format": "binding", "details": "FIG. 4", "excerpt": "The compound U1P was used as a probe for activity-based labeling (activity-based protein profiling, ABPP) of the S. aureus NCTC 8325 proteome, as described in WO 2009/106211.\nThe U1P ABPP probe represents the lead structures of the known beta-lactone CIpP inhibitors modified with a terminal alkyne group. This compound is both active in hemolysis inhibition and CIpP inhibition. The terminal alkyne group comprised in UIP can be used for appending a fluorophore such as rhodamine-azide using click chemistry (1,3-dipolar Huisgen cycloaddition), which allows to scan the proteome of S. aureus for possible covalent binding partners. This compound consistently labels CIpP protease in a covalent manner in S. aureus proteomes.\nThe inventors used this compound in order to investigate whether compounds according to the present invention are able to reduce or suppress by non-covalent binding the covalent binding of the U1P ABPP probe to proteins of the S. aureus proteome. For a detailed description of the technique underlying these experiments see T. Böttcher, M. Pitscheider S. A. Sieber, Angew Chem Int Ed Engl. 2010, 2680.\nLiving S. aureus NCTC8325 cells from a fresh stationary liquid culture were aliquoted to equivalents of 1 ml of OD600=2. Bacterial cells were washed and resuspended in 100 μl PBS. Bacterial cell aliquots were then pre-incubated with the compounds AVU1AA or VK273 of the invention for 1 h at RT at final concentrations of 5 or 10 mM. Subsequently, the covalent ABPP probe UIP was added to a final concentration of 100 μM for 30 min at RT. After the competitive labeling procedure bacterial cells were washed twice, disrupted and labeled with rhodamine-azide using click chemistry. The labeled S. aureus proteome samples were separated by SDS-PAGE and visualized using fluorescence scanning."}, "[5]": {"target": "T2, CIpP protease from S. aureus NCTC8325 (SaCIpP) (Staphylococcus aureus, UniProt Q2G036)", "T2 construct": "made in house; host or cells: E. coli", "T2 sequence (Q2G036 1-195)": "T1 sequence (Q2G036 1-195)", "experiment": "in vitro inhibition of recombinant S. aureus CIpP with SLY-AMC substrate", "format": "biochemical", "details": "inhibitor 2 mM (1000×), 30 min RT; SLY-AMC 200 μM; FIG. 3", "method": "The CIpP protease from S. aureus NCTC8325 (SaCIpP) was recombinantly overexpressed in E. coli and purified in order to investigate enzyme inhibition using SLY-AMC (N-succinyl-Leu-Tyr-7-amido-4-methylcoumarin) as fluorogenic model substrate.\nPrecisely, 9 μl of SaCIpP in buffered solution (final concentration 0.05 mg/ml, 2 μM; buffer: 100 mM NaCl, 20 mM Tris, pH 7.0) were incubated in the presence of 1 μl of various inhibitors (final concentration 2 mM=1000×) for 30 min at room temperature (RT). Subsequently, SLY-AMC was added to a final concentration of 200 μM and the increase in fluorescence due to enzymatic substrate proteolysis was measured using a TECAN GENios Pro™ plate reader at 380/440 nm (excitation/emission) at time intervals of 60 s over 40 min at 37° C. The enzymatic activity was determined as the slope of fluorescence (2=440 nm) over time. As positive controls, the in vivo active beta-lactone compound AVU1 (“U1”; WO 2009/106211) and the in vitro potent CIpP beta-lactone inhibitor D3 (WO 2009/106211) were employed."}},
  "note": "Like-named read-outs stand apart in the source and are kept apart here.",
  "data": [
    {"smiles": "C=CCCCCCCC[C@H]1C(=O)O[C@@H]1CCc1ccccc1", "note": "[AVU1, reference compound]", "values": [
      {"measurement": "MIC", "setting": "[1]; Assay 2", "result": ">1000", "unit": "µM"},
      {"measurement": "MIC", "setting": "[1]; Assay 3", "result": ">1000", "unit": "µM"},
      {"measurement": "MIC", "setting": "[1]; Assay 4", "result": ">1000", "unit": "µM"},
      {"measurement": "MIC", "setting": "[1]; Staphylococcus aureus, NCTC8325, Assay 1", "result": "> 1000", "unit": "µM"},
      {"measurement": "EC50", "setting": "[2]; Staphylococcus aureus, NCTC8325, Erythrocyte, Assay 1, hemolysin production", "result": 142, "unit": "µM"},
      {"measurement": "EC50", "setting": "[2]; Staphylococcus aureus, NCTC8325, Erythrocyte, Assay 2, hemolysin production, assess relative to AVU1", "result": "10 to 50", "unit": "µM"},
      {"measurement": "EC50", "setting": "[2]; Staphylococcus aureus, NCTC8325, Erythrocyte, Assay 3, hemolysin production, assess relative to AVU1", "result": "50 to 100", "unit": "µM"},
      {"measurement": "EC50", "setting": "[2]; Staphylococcus aureus, NCTC8325, Erythrocyte, Assay 4, hemolysin production, assess relative to AVU1", "result": 31, "unit": "µM"},
      {"measurement": "stability in mouse plasma", "setting": "[3]", "result": "degraded within a few minutes"}
    ]},
    {"smiles": "CCN(CC)CCOC(=O)c1ccc(N)cc1", "note": "[Procaine]", "values": [
      {"measurement": "half-life at 100 μM", "setting": "[4]", "result": "6 to 9", "unit": "min"}
    ]},
    {"smiles": "C#CC[C@H]1C(=O)O[C@@H]1CCc1ccccc1", "note": "[U1P, reference compound]", "values": [
      {"measurement": "labeling signal of probe", "setting": "CIpP; in the absence of competitive compounds", "result": "strong labeling signal with CIpP as the main target"}
    ]},
    {"smiles": "C=CCCCCCCCC(CO)C(O)CCc1ccccc1", "note": "(stereo not shown) [VK273, 2-(non-8-enyl)-5-phenylpentandiol-1,3]", "values": [
      {"measurement": "MIC", "setting": "[1]; Assay 1", "result": ">1000", "unit": "µM"},
      {"measurement": "EC50", "setting": "[2]; Assay 1, hemolysin production", "result": 24.8, "unit": "µM"},
      {"measurement": "inhibition of SaCIpP", "setting": "[5]", "result": "inhibit SaCIpP at an at least comparable level as the in vivo active beta-lactone reference compound AVU1"},
      {"measurement": "labeling in the absence of U1P", "setting": "CIpP; bacterial cells incubated with compound alone", "result": "did not result in any unspecific labeling"},
      {"measurement": "target binding of U1P after pre-incubation with competitor", "setting": "CIpP; pre-incubation 1 h at RT at 5 or 10 mM, U1P 100 μM 30 min", "result": "significantly reduced target binding of U1P"}
    ]}
  ]
}
